Calls of active or inactive are those of the source.
How the values were obtained:
[1] = target: T1, Sentrin-specific protease 8 (Homo sapiens, UniProt Q96LD8); assay type: functional;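 note: luminescence read-out of SENP8 inhibition, dose-response confirmation following an ultra-high-throughput screen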
T1 sequence (Q96LD8 whole entry): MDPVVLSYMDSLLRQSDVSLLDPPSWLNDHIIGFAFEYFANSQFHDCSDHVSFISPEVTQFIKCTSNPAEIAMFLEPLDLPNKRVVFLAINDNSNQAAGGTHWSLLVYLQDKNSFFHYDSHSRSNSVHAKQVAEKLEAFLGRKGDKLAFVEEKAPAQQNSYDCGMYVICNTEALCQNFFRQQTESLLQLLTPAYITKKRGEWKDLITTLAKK

[2] = target: T2, Sentrin-specific protease 6 (Homo sapiens, UniProt Q9GZR1); assay type: functional;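 note: Luminescence-based dose-response confirmatory assay of SENP6 inhibition, following up an ultra-high-throughput screen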
T2 sequence (Q9GZR1 whole entry): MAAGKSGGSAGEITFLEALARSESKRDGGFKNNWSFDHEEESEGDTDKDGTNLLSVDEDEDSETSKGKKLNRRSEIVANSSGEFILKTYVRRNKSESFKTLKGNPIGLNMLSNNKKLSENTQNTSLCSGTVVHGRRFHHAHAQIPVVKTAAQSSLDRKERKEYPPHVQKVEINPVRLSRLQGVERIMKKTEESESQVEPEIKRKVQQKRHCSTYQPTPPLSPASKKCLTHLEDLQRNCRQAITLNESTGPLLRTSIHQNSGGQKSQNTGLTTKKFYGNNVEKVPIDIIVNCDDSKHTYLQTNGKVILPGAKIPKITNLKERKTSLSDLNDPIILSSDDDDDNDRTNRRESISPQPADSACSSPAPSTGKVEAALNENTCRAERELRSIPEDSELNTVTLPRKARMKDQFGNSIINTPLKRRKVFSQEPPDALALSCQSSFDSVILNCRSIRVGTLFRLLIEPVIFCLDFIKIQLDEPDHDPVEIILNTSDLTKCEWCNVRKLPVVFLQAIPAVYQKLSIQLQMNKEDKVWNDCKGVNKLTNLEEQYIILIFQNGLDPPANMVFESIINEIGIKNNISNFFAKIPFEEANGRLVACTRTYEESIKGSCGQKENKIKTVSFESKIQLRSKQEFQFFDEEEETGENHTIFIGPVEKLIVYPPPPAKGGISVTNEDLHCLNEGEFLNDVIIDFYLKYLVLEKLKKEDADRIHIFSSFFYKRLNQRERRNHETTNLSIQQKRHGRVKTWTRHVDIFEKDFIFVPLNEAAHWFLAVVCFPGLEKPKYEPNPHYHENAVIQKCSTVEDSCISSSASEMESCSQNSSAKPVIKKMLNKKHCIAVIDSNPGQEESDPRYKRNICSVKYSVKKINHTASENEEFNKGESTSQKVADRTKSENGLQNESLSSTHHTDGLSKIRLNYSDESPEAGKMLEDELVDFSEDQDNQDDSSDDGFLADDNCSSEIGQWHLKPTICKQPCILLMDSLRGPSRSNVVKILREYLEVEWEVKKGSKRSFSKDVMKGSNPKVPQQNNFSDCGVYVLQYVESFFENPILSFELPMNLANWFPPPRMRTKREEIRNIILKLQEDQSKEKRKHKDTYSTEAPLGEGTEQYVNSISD

[3] = target: T3, Sentrin-specific protease 7 (Homo sapiens, UniProt Q9BQF6); assay type: functional;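 note: Luminescence-based dose-response confirmation of ultra-high-throughput screening hits, measuring inhibition of SENP7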
T3 sequence (Q9BQF6 whole entry): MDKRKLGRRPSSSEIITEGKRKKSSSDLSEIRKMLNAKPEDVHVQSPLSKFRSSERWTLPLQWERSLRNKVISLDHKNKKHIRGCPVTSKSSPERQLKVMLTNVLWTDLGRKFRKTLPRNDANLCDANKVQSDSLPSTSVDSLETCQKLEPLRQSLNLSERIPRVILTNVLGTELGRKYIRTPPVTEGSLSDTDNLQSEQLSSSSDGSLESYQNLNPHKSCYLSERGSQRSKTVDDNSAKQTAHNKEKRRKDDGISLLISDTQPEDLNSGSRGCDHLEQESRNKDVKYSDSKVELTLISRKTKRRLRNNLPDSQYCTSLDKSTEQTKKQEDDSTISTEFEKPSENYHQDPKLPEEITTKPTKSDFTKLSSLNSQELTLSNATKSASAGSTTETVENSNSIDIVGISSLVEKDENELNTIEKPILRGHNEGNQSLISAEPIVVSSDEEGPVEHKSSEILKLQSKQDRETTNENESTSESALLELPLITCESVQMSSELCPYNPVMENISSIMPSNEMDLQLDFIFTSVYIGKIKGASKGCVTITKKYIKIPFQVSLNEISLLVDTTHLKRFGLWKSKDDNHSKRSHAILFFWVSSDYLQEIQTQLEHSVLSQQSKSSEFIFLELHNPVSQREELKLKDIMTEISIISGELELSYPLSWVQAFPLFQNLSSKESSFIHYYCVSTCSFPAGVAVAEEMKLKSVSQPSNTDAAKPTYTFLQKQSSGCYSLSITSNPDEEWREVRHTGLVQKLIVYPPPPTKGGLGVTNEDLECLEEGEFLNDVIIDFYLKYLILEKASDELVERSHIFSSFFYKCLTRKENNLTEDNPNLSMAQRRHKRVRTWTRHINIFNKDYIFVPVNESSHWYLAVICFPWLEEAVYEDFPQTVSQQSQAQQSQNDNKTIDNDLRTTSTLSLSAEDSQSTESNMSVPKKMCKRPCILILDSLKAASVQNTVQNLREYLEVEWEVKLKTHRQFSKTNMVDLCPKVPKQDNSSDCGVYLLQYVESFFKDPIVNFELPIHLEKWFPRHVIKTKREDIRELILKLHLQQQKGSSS

[4] = target: T4, Caspase-3 (Homo sapiens, UniProt P42574); assay type: functional;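 note: Dose-response selectivity test against caspase-3 for candidate inhibitors of sentrin-specific proteases (SENPs)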
T4 sequence (P42574 whole entry): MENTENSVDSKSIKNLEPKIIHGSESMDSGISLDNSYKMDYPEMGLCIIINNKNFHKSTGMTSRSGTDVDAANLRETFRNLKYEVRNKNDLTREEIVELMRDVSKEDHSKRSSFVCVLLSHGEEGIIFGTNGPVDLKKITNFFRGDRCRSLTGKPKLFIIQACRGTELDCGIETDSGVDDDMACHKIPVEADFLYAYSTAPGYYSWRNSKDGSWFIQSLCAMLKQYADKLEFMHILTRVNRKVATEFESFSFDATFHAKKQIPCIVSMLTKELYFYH

[5] = target: T5, Protein skinhead-1 (Caenorhabditis elegans, UniProt P34707); assay type: functional
T5 sequence (P34707 whole entry): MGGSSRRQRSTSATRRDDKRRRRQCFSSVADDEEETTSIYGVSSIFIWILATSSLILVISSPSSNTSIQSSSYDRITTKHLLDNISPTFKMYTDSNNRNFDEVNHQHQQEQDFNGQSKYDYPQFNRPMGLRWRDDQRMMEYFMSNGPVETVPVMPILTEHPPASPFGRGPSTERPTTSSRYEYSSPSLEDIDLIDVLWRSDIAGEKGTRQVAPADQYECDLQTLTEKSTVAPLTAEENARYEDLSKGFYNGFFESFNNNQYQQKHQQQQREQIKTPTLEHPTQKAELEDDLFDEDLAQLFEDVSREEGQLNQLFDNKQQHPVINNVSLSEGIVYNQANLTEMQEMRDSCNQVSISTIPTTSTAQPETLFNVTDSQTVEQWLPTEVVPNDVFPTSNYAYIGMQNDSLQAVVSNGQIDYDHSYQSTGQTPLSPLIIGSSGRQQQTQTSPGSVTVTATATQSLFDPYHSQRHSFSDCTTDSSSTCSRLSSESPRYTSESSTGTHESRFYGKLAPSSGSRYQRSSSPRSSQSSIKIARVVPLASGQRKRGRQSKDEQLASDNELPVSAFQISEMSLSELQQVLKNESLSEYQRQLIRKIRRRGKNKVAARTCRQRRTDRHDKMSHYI

[6] = target: T6, High affinity choline transporter 1 (Homo sapiens, UniProt Q9GZV3); assay: human choline transporter blockers, potency – cell-based, 5-point CRC, membrane potential dye, dose response (AID 504840); assay type: functional
T6 sequence (Q9GZV3 whole entry): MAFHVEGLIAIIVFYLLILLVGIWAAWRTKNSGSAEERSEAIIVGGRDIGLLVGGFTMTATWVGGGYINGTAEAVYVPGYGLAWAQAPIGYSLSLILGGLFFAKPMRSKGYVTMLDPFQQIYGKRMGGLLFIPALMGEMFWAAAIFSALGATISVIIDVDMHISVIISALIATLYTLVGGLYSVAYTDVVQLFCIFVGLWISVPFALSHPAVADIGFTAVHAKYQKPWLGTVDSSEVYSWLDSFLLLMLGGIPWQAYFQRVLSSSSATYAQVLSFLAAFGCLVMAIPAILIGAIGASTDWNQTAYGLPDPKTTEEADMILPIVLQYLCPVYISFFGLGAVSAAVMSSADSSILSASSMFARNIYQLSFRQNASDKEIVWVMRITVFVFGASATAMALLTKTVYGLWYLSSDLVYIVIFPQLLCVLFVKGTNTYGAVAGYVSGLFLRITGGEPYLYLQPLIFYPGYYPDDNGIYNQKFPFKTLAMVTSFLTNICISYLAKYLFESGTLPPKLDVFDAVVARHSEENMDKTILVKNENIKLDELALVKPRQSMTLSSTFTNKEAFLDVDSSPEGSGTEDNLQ

[7] = target: T6, High affinity choline transporter 1; assay: human choline transporter blockers, potency – cell-based, 10-point CRC, membrane potential dye, dose response (AID 588401); assay type: functional;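 note: membrane potential dye fluorescence of choline-evoked depolarization via CHT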
[8] = target: T7, RNA-binding protein pos-1 (Caenorhabditis elegans, UniProt G5EF15); assay: disruptors of C. elegans POS-1 RNA interaction – biochemical, fluorescence polarization, dose response (AID 1964);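 note: purified POS-1 fused to maltose binding protein made in E. coli; potency of compounds blocking POS-1 binding to fluorescent RNA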
T7 sequence (G5EF15 whole entry): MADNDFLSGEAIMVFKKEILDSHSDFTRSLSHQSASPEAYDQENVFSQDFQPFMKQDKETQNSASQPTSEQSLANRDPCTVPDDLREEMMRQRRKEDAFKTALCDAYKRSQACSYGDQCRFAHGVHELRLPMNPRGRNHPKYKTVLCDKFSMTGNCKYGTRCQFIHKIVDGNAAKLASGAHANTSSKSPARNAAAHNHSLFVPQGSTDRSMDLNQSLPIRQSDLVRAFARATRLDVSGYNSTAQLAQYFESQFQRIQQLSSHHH

[9] = target: T8, Zinc finger protein mex-5 (Caenorhabditis elegans, UniProt Q9XUB2); assay: potency of MEX-5 RNA-binding blockers – biochemical, C. elegans, fluorescence polarization, dose response (AID 1960)
T8 sequence (Q9XUB2 whole entry): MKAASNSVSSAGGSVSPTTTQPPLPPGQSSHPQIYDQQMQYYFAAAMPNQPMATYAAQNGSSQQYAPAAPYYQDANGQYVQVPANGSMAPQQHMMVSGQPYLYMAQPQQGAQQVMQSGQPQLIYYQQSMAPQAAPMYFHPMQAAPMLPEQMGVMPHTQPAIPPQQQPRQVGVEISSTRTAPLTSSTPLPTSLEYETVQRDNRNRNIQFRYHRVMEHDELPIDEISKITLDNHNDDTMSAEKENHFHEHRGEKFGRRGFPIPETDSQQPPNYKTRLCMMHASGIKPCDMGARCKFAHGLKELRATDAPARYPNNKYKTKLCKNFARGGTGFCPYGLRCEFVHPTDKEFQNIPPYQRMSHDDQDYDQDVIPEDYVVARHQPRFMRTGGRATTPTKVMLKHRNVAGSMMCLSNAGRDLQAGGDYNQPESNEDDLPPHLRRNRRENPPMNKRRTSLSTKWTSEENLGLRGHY

Row | SMILES | IC50 [2] | IC50 [3] | IC50 [4] | IC50 [5] | IC50 [6] | IC50 [7] | EC50 [8] | EC50 [9] | IC50 [1]
1 | O=C(/C=C/c1ccco1)Nc1ccc(N2CCCC2)cc1 | > 100 µM (inactive) | > 100 µM (inactive) | > 100 µM (inactive) |  |  |  |  |  | > 100 µM (inactive)
2 | CCC(C)c1ccc(NC(S)=NC(C)C2CCCO2)cc1 (stereo unspecified) |  |  |  |  | 5.01 µM (active) | 4.09 µM (active) |  |  | 
3 | Cc1n[nH]c(C)c1Sc1ccccc1/N=C/c1cc(Cl)cc([N+](=O)[O-])c1O |  |  |  |  | 8.88 µM (active) | 6.23 µM (active) | > 300 µM (inconclusive) | 7.57 µM (inconclusive) | 

The next lines start with results.

Row | IC50 [2] | IC50 [3] | IC50 [4] | IC50 [5] | IC50 [6] | IC50 [7] | EC50 [8] | EC50 [9] | SMILES | IC50 [1]
4 | 3.19 µM (active) | 2.65 µM (active) | 3.19 µM (active) | > 100 µM (inactive) |  |  |  |  | Clc1ccc(-c2nnc(-c3ccccc3Cl)o2)cc1 | 8.03 µM (active)
5 |  |  |  |  | 2.83 µM (active) | 1 µM (active) |  |  | O=C(C[n+]1cccc(Br)c1)c1ccc(-c2ccccc2)cc1 | 
6 | 4.07 µM (active) | 2.96 µM (active) | 15.8 µM (active) |  |  |  |  |  | Brc1ccc(/C=N/Nc2ccccn2)cc1 | > 100 µM (inactive)

Source: ChEMBL document CHEMBL1201862, “PubChem BioAssay data set” (2004)
